Measurements: patent US20100204328A1, “Solution and Method to Reduce, Treat and/or Prevent Oxidative Stress and Cell Activation” (priority 2006, published 2010)
Where two headings read alike, the source gives them in different places.

Columns and labels:
isolated Leukocytes = experiment: Design-of-experiments screening of antioxidants: intracellular free radical formation in PMA-stimulated isolated leukocytes (96-well plate, fluorescence kinetics); type: cell-based, human; conditions: model, other substances on a medium level, FIG. 9
Procedure: An often discussed therapeutic intervention is the addition of substances with antioxidative properties to balance the oxidative/antioxidative system. In our work we performed a systematic screening of such antioxidants, see FIG. 2. The screening was done in a 96-well-plate setup where isolated Leukocytes from healthy donors were pre-incubated with antioxidants for 1 hour. The chosen substances were N-acetyl-cysteine (NAC), gluconic acid (GA), glutathione (GSH) and vitamin […] fluorescence dye was added as a marker for intracellular free radical formation. Afterwards the cells were stimulated by phorbol-myristate-acetate (PMA) and free radical formation was recorded as fluorescence signal over time. The dye in this assay is membrane-permeable and non-fluorescent when it is added. Diffusing once into the cell, enzymes convert it to a readily oxidizable fluorescence dye and the intracellular formation of free radicals can be measured. In order to perform a systematic screening of these substances we would have had to carry out a lot of experiments. Due to the lack of blood donors we chose the methodology of design of experiments, see FIG. 3. Here an experimental plan is generated on statistical basis and a mathematical model can be established. In our case we chose a Centrum Composite Circumscribed-Design (CCC), which is a combination of a full-factorial and a Central Composite-Design (CCD) with a center point. Every single experiment was carried out three times. Besides saving many experiments an additional advantage is the consideration of interactions and quadratic influences. The software tool Mode generates the experimental plan where the combinations of the substances vary according to the chosen CCC-Design, see FIG. 4. Out of the measured fluorescence kinetics a free-radical-inhibition-ratio was calculated and implemented. A ratio of 1 relates to 100% inhibition of free radical formation. The obtained data was fitted by multiple linear regression analysis, see FIG. 5. The influence of single substances, its quadratic terms and interactions between the substances are considered in the shown equation. The quality of the model fit is defined in the summary plot. R^2 stands for regression, Q^2 for prediction quality, MV for model validity and Rep for reproducibility. […] The model has to be further optimised. To identify a model-weakness a closer look into the model is required.

White blood cells (WBC) = experiment: Inhibition of cell activation/ROS-generation by addition of free radical scavengers (H2DCF-DA fluorescence); type: cell-based, human; conditions: WBC preincubated 30-60 minutes, PMA or LPS stimulus, FIG. 15
Procedure: Other macromolecules with SH sites could also be applied.
White blood cells (WBC) were isolated from freshly donated human whole blood. This was done by collecting whole blood from healthy donors on Heparin anticoagulation. Leukocytes were isolated out of the whole blood with the help of an isolation gradient (Polymorphprep). Isolated Leukocytes were diluted in PBS or RPMI 1640 cell culture media and a concentration of 2×10^6/ml was chosen. The cells were stored at 37° in 5% CO2. The cells were preincubated with the substances at 37° C. for 30-60 minutes. Afterwards the cells were stimulated with 50 ng/ml PMA or 30 EU/ml LPS. For ROS-measurement a fluorescence dye (dichlorodihydrofluorescein-diacetate, H2DCF-DA) was added at 10 μM final concentration. The cells were incubated with the substance, the fluorescence dye and the activator for 2 hrs and the fluorescence intensity kinetics was measured over time. To compare the result between two substances, the fluorescence intensity at a certain time point, e.g. 30 minutes) was recorded. For comparison the fluorescence at a certain time is shown in the diagram in FIG. 15.

WBC [1] = experiment: Reduction of ROS during perfusion through hollow fiber minimodule; type: cell-based, human; conditions: scavenger added to dialysis fluid, counter current, single pass, FIG. 19
Procedure: WBC were isolated from human blood donation. Cells were stimulated by PMA and after one hour incubation a fluorescence dye (H2DCF-DA) was added to the cells and incubated for another 25 mins. The cell suspension was pumped single pass through a hollow fiber minimodule. On the dialysate pathway dialysis fluid with or without radical scavenger was pumped in counter current. Fluorescence was measured at the dialyzer inlet and outlet and fluorescence reduction in the filter was calculated. Negative control: PBS-buffer without radical scavenger as dialysis fluid, see FIG. 19.

Interleukin 6 = experiment: IL-6 expression in LPS-incubated whole blood by flow cytometry; type: cell-based; conditions: whole blood with LPS, substance added directly or after 2 hrs, measured after 4 hrs; for expression of IL6: FIG. 21
Text: Further we analyzed intracellular IL-6 concentrations—indicator of proinflammatory cell activation—by flow cytometry and by this we were also able to analyze the percentage of […]/activated cells, see FIG. 20. Shown are the results for intracellular IL-6. Further data were generated to show: • (1) That use of LPS as primary stimulus instead of PMA (i.e. other cell activation pathway) is inducing similar activation pattern. LPS could stand for a septic/bacterial infection environment instead of a pro-oxidative environment. • (2) That additional and more complete interventions in the pathophysiological sequence through scavengers reduces also the expression of cellular surface markers like CD11b (an indicator of enhanced adhesion to vascular walls).
Whole blood was incubated with LPS; ethyl pyruvate and N-acetyl-cysteine, respectively were added directly or after 2 hrs. Expression of Interleukin 6 was measured after 4 hrs with flow cytometer, see FIG. 21.

CD11b = CD11b expression of granulocytes in LPS-incubated whole blood by flow cytometry; type: cell-based; conditions: LPS 10/100 U/ml 45 minutes, then substance 4 hrs, FIG. 22
Procedure: Whole blood was incubated with LPS (10/100 U/ml) for 45 minutes. Ethyl pyruvate, N-acetyl-cysteine and gluconate were added to the stimulated system and incubated for 4 hrs. CD11b Expression of granulocytes was measured with flow cytometry, see FIG. 22.

ROS = experiment: ROS-inhibition with pre-incubation versus post-incubation (pre-stimulation) of cells; type: cell-based; conditions: single substances, FIGS. 31 to 34
Procedure: Therefore, the ROS-inhibition was tested in two different applications:
1. Pre-incubation (activation of cells after incubation with a substance or combination of substances according to the invention)
2. Post-incubation (addition of a substance or a combination of substances according to the invention after cell activation)
All substances or combinations thereof were tested in the same concentration ranges as in the screening of the combinations as described before.

[2] = cited from earlier work
[3] = FIG. 25; cited from earlier work
WBC [4] = experiment: Inhibition of cell activation/ROS-generation by free radical scavengers via the membrane; type: cell-based, human; conditions: low flux membrane, incubation 60 mins, PMA, FIG. 17
Procedure: WBC were isolated from human blood donation. Cells were separated by a membrane from the second compartment which comprises a buffer-system containing a radical scavenger (incubation time 60 mins). Afterwards a fluorescence dye (H2DCF-DA) was added to the cells and incubated for 25 mins. Finally stimulation of WBCs was performed by PMA and fluorescence was measured over time, see FIG. 17.
Positive control: with stimulus (2nd compartment PBS-buffer),
Negative control: without stimulus (2nd compartment PBS-buffer)

Row | Structure (SMILES) | influence of the concentration of a single substance on the ROS-Inhibition ratio (isolated Leukocytes) | free radical formation (White blood cells (WBC)) | free radicals on the blood side in the dialyzer and in the intracellular compartment (WBC [1]) | number of IL-6 positive cells (Interleukin 6) | expression of IL6 (Interleukin 6) | expression of CD11b adhesion marker (CD11b) | ROS inhibition (ROS) | also measured
1 | CC(=O)N[C@@H](CS)C(=O)O [N-acetyl-cysteine] | quadratic character | able to inhibit free radical formation | free radicals are reduced | reduce the number of IL-6 positive cells | reduce the expression of IL6 | reduce expression of CD11b adhesion marker | 60-80% | tolerability of rather high plasma levels ([2]; application as an antidote in acute situations): well tolerated; plasma levels ([2]; intravenous application, compared with oral): higher plasma levels; bioavailability ([2]; oral application): poor bioavailability; plasma levels ([2]; oral application): 3 to 30 µM; plasma level at which first beneficial effects could be shown [3]: 12 µM
2 | CC(=O)N[C@H]1C(O)O[C@H](CO)[C@@H](O)[C@@H]1O (stereo partly drawn) [N-acetyl-glucosamine] | – | able to inhibit free radical formation | – | – | – | – | – | –
3 | CCOC(=O)C(C)=O [ethyl pyruvate] | – | – | free radicals are reduced | reduce the number of IL-6 positive cells | reduce the expression of IL6 | reduce expression of CD11b adhesion marker | – | –
4 | O=C(O)[C@H](O)[C@@H](O)[C@H](O)[C@H](O)CO [gluconic acid] | quadratic character | able to inhibit free radical formation | – | – | – | reduce expression of CD11b adhesion marker | 15-30% | free radical formation, scavenger acting through the membrane (WBC [4]): capable to inhibit
5 | N[C@@H](CCC(=O)N[C@@H](CS)C(=O)NCC(=O)O)C(=O)O [glutathione] | negative gradient with increasing concentration | able to inhibit free radical formation | – | – | – | – | 55-65% | –
6 | O=C1O[C@H]([C@@H](O)CO)C(O)=C1O [vitamin C] | negative gradient with increasing concentration | – | – | – | – | – | 20-80% | –
